Measured values: the NIST ThermoML archive (doi:10.1016/j.jct.2011.04.015)
± gives the expanded uncertainty stated by the source.

Experiments:
[1] = Crystal; DTA
[2] = Molar enthalpy of transition or fusion; settings: Crystal; DSC
[3] = molar enthalpy of vaporization or sublimation; settings: 298.15 K; Crystal; Static calorimetry

Triple point temperature [1]: 503.74 ± 0.39 K | Molar enthalpy of transition or fusion [2]: 31.2 ± 0.7 kJ/mol | molar enthalpy [3]: 134 ± 3 kJ/mol
SMILES: O=c1ccc2ccc(O)cc2o1 [7-hydroxy-2H-chromen-2-one]
